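Five concentrations, 48 hours, 96-well plates. TGI: concentration producing complete growth inhibition.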
Assays:
Experiment in all cases: NCI tumour cell line growth inhibition, 48 h
HS 578T breast = system: HS 578T breast
NCI-H460 lung = system: NCI-H460 lung
SF-268 CNS = system: SF-268 CNS
HL-60(TB) leukemia = system: HL-60(TB) leukemia
OVCAR-8 ovarian = system: OVCAR-8 ovarian
IGROV1 ovarian = system: IGROV1 ovarian
UACC-257 melanoma = system: UACC-257 melanoma
NCI-H23 lung = system: NCI-H23 lung
SNB-75 CNS = system: SNB-75 CNS
HOP-62 NSCLC = system: HOP-62 NSCLC
ACHN renal = system: ACHN renal
MDA-MB-435 = system: MDA-MB-435
TK-10 renal = system: TK-10 renal
OVCAR-4 ovarian = system: OVCAR-4 ovarian
HCT-116 colon = system: HCT-116 colon
786-0 renal = system: 786-0 renal
K-562 leukemia = system: K-562 leukemia
MDA-N = system: MDA-N
DU-145 prostate = system: DU-145 prostate
OVCAR-5 ovarian = system: OVCAR-5 ovarian
KM12 colon = system: KM12 colon
A549 NSCLC = system: A549 NSCLC
HCT-15 colon = system: HCT-15 colon
SR leukemia = system: SR leukemia
SN12C renal = system: SN12C renal
MDA-MB-231 breast = system: MDA-MB-231 breast
RXF 393 renal = system: RXF 393 renal
SK-MEL-2 melanoma = system: SK-MEL-2 melanoma
SF-295 CNS = system: SF-295 CNS
UACC-62 melanoma = system: UACC-62 melanoma
T-47D breast = system: T-47D breast
U251 CNS = system: U251 CNS
HT29 colon = system: HT29 colon
SK-MEL-28 melanoma = system: SK-MEL-28 melanoma
MCF7 breast = system: MCF7 breast
PC-3 prostate = system: PC-3 prostate
COLO 205 colon = system: COLO 205 colon
NCI/ADR-RES ovarian = system: NCI/ADR-RES ovarian
LOX IMVI melanoma = system: LOX IMVI melanoma
CAKI-1 renal = system: CAKI-1 renal
MOLT-4 leukemia = system: MOLT-4 leukemia
NCI-H226 lung = system: NCI-H226 lung
MALME-3M melanoma = system: MALME-3M melanoma
OVCAR-3 ovarian = system: OVCAR-3 ovarian
EKVX NSCLC = system: EKVX NSCLC
NCI-H522 lung = system: NCI-H522 lung
M14 melanoma = system: M14 melanoma
RPMI-8226 leukemia = system: RPMI-8226 leukemia
SNB-19 CNS = system: SNB-19 CNS
HCC-2998 colon = system: HCC-2998 colon
CCRF-CEM leukemia = system: CCRF-CEM leukemia
UO-31 renal = system: UO-31 renal
SW-620 colon = system: SW-620 colon
SK-OV-3 ovarian = system: SK-OV-3 ovarian
HOP-92 NSCLC = system: HOP-92 NSCLC
SK-MEL-5 melanoma = system: SK-MEL-5 melanoma
A498 renal = system: A498 renal
SF-539 CNS = system: SF-539 CNS

With `CCCCCCCCCCOC1C(C(O)CNCCCN(C)C)OC2OC3(CCCCC3)OC21` (configuration not stated) the TGI (HS 578T breast) was 6.53 µM, the TGI (NCI-H460 lung) was 3.44 µM and the TGI (SF-268 CNS) was 5.12 µM. It also gave a TGI (HL-60(TB) leukemia) of 3.59 µM, a TGI (OVCAR-8 ovarian) of 4.18 µM and a TGI (IGROV1 ovarian) of 3.82 µM. For the same compound, the TGI (UACC-257 melanoma) was 10.8 µM, the TGI (NCI-H23 lung) was 3.01 µM and the TGI (SNB-75 CNS) was 0.681 µM. It also gave a TGI (HOP-62 NSCLC) of 4.04 µM, a TGI (ACHN renal) of 8.09 µM and a TGI (MDA-MB-435) of 3.56 µM. For the same compound, the TGI (TK-10 renal) was 6.55 µM, the TGI (OVCAR-4 ovarian) was 4.25 µM and the TGI (HCT-116 colon) was 3.53 µM. The TGI (786-0 renal) was 3.37 µM, the TGI (K-562 leukemia) was 3.47 µM and the TGI (MDA-N) was 3.37 µM. For the same compound, the TGI (DU-145 prostate) was 9.24 µM, the TGI (OVCAR-5 ovarian) was 3.71 µM and the TGI (KM12 colon) was 2.91 µM. The TGI (A549 NSCLC) was 11.7 µM, the TGI (HCT-15 colon) was 3.21 µM and the TGI (SR leukemia) was 0.739 µM. The TGI (SN12C renal) was 5.19 µM, the TGI (MDA-MB-231 breast) was 3.31 µM and the TGI (RXF 393 renal) was 3.7 µM. It also gave a TGI (SK-MEL-2 melanoma) of 4 µM, a TGI (SF-295 CNS) of 3.52 µM and a TGI (UACC-62 melanoma) of 4.53 µM. The TGI (T-47D breast) was 5.42 µM, the TGI (U251 CNS) was 3.23 µM and the TGI (HT29 colon) was 3.12 µM. For the same compound, the TGI (SK-MEL-28 melanoma) was 3.1 µM, the TGI (MCF7 breast) was 3.7 µM and the TGI (PC-3 prostate) was 6.7 µM. It also gave a TGI (COLO 205 colon) of 3.43 µM, a TGI (NCI/ADR-RES ovarian) of 8.87 µM and a TGI (LOX IMVI melanoma) of 2.68 µM. For the same compound, the TGI (CAKI-1 renal) was 4.21 µM, the TGI (MOLT-4 leukemia) was 3.87 µM and the TGI (NCI-H226 lung) was 36.7 µM. The TGI (MALME-3M melanoma) was 3.61 µM, the TGI (OVCAR-3 ovarian) was 3.59 µM and the TGI (EKVX NSCLC) was 7.6 µM. For the same compound, the TGI (NCI-H522 lung) was 3.56 µM, the TGI (M14 melanoma) was 3.55 µM and the TGI (RPMI-8226 leukemia) was 4.37 µM. For the same compound, the TGI (SNB-19 CNS) was 3.24 µM, the TGI (HCC-2998 colon) was 4.46 µM and the TGI (CCRF-CEM leukemia) was 3.64 µM. For the same compound, the TGI (UO-31 renal) was 4.45 µM, the TGI (SW-620 colon) was 3.24 µM and the TGI (SK-OV-3 ovarian) was 13.9 µM. It also gave a TGI (HOP-92 NSCLC) of 5.33 µM and a TGI (SK-MEL-5 melanoma) of 3.34 µM.
For `O=[N+]([O-])C(=C1NCCN1)C(Cl)=C(Cl)Cl`, the TGI (HS 578T breast) was greater than 100 µM, the TGI (NCI-H460 lung) was greater than 100 µM and the TGI (SF-268 CNS) was greater than 100 µM. For the same compound, the TGI (HL-60(TB) leukemia) was greater than 100 µM, the TGI (A498 renal) was greater than 100 µM and the TGI (OVCAR-8 ovarian) was greater than 100 µM. It also gave a TGI (IGROV1 ovarian) greater than 100 µM, a TGI (UACC-257 melanoma) greater than 100 µM and a TGI (NCI-H23 lung) greater than 100 µM. For the same compound, the TGI (HOP-62 NSCLC) was greater than 100 µM, the TGI (ACHN renal) was greater than 100 µM and the TGI (MDA-MB-435) was greater than 100 µM. It also gave a TGI (TK-10 renal) greater than 100 µM, a TGI (OVCAR-4 ovarian) greater than 100 µM and a TGI (HCT-116 colon) greater than 100 µM. The TGI (786-0 renal) was greater than 100 µM, the TGI (K-562 leukemia) was greater than 100 µM and the TGI (MDA-N) was greater than 100 µM. For the same compound, the TGI (DU-145 prostate) was greater than 100 µM, the TGI (OVCAR-5 ovarian) was greater than 100 µM and the TGI (KM12 colon) was greater than 100 µM. The TGI (SF-539 CNS) was greater than 100 µM, the TGI (A549 NSCLC) was greater than 100 µM and the TGI (HCT-15 colon) was greater than 100 µM. The TGI (SR leukemia) was greater than 100 µM, the TGI (SN12C renal) was greater than 100 µM and the TGI (MDA-MB-231 breast) was greater than 100 µM. It also gave a TGI (RXF 393 renal) greater than 100 µM, a TGI (SK-MEL-2 melanoma) greater than 100 µM and a TGI (SF-295 CNS) greater than 100 µM. The TGI (UACC-62 melanoma) was greater than 100 µM, the TGI (T-47D breast) was greater than 100 µM and the TGI (U251 CNS) was greater than 100 µM. For the same compound, the TGI (HT29 colon) was greater than 100 µM, the TGI (SK-MEL-28 melanoma) was greater than 100 µM and the TGI (MCF7 breast) was greater than 100 µM. For the same compound, the TGI (PC-3 prostate) was greater than 100 µM, the TGI (COLO 205 colon) was greater than 100 µM and the TGI (NCI/ADR-RES ovarian) was greater than 100 µM. It also gave a TGI (LOX IMVI melanoma) greater than 100 µM, a TGI (CAKI-1 renal) greater than 100 µM and a TGI (MOLT-4 leukemia) greater than 100 µM. The TGI (NCI-H226 lung) was greater than 100 µM, the TGI (MALME-3M melanoma) was greater than 100 µM and the TGI (OVCAR-3 ovarian) was greater than 100 µM. It also gave a TGI (EKVX NSCLC) greater than 100 µM, a TGI (NCI-H522 lung) greater than 100 µM and a TGI (M14 melanoma) greater than 100 µM. The TGI (RPMI-8226 leukemia) was greater than 100 µM, the TGI (SNB-19 CNS) was greater than 100 µM and the TGI (HCC-2998 colon) was greater than 100 µM. For the same compound, the TGI (CCRF-CEM leukemia) was greater than 100 µM, the TGI (UO-31 renal) was greater than 100 µM and the TGI (SK-OV-3 ovarian) was greater than 100 µM. The TGI (SK-MEL-5 melanoma) was greater than 100 µM.
`CC1(c2ccccc2)N=C(C(N)=O)c2[nH]cnc2N1` (configuration not stated) showed a TGI (HS 578T breast) greater than 100 µM, a TGI (NCI-H460 lung) greater than 100 µM and a TGI (SF-268 CNS) greater than 100 µM. It also gave a TGI (HL-60(TB) leukemia) greater than 100 µM, a TGI (A498 renal) greater than 100 µM and a TGI (OVCAR-8 ovarian) greater than 100 µM. The TGI (IGROV1 ovarian) was greater than 100 µM, the TGI (UACC-257 melanoma) was greater than 100 µM and the TGI (NCI-H23 lung) was greater than 100 µM. It also gave a TGI (SNB-75 CNS) greater than 100 µM, a TGI (HOP-62 NSCLC) greater than 100 µM and a TGI (ACHN renal) greater than 100 µM. It also gave a TGI (MDA-MB-435) greater than 100 µM, a TGI (TK-10 renal) greater than 100 µM and a TGI (OVCAR-4 ovarian) greater than 100 µM. It also gave a TGI (HCT-116 colon) greater than 100 µM, a TGI (786-0 renal) greater than 100 µM and a TGI (K-562 leukemia) greater than 100 µM. The TGI (MDA-N) was greater than 100 µM, the TGI (DU-145 prostate) was greater than 100 µM and the TGI (OVCAR-5 ovarian) was greater than 100 µM. The TGI (KM12 colon) was greater than 100 µM, the TGI (SF-539 CNS) was greater than 100 µM and the TGI (A549 NSCLC) was greater than 100 µM. For the same compound, the TGI (HCT-15 colon) was greater than 100 µM, the TGI (SR leukemia) was greater than 100 µM and the TGI (SN12C renal) was greater than 100 µM. It also gave a TGI (MDA-MB-231 breast) greater than 100 µM, a TGI (RXF 393 renal) greater than 100 µM and a TGI (SK-MEL-2 melanoma) greater than 100 µM. It also gave a TGI (SF-295 CNS) greater than 100 µM, a TGI (UACC-62 melanoma) greater than 100 µM and a TGI (T-47D breast) greater than 100 µM. It also gave a TGI (U251 CNS) greater than 100 µM, a TGI (HT29 colon) greater than 100 µM and a TGI (SK-MEL-28 melanoma) greater than 100 µM. For the same compound, the TGI (MCF7 breast) was greater than 100 µM, the TGI (PC-3 prostate) was greater than 100 µM and the TGI (COLO 205 colon) was greater than 100 µM. The TGI (NCI/ADR-RES ovarian) was greater than 100 µM, the TGI (LOX IMVI melanoma) was greater than 100 µM and the TGI (CAKI-1 renal) was greater than 100 µM. For the same compound, the TGI (NCI-H226 lung) was greater than 100 µM, the TGI (MALME-3M melanoma) was greater than 100 µM and the TGI (OVCAR-3 ovarian) was greater than 100 µM. It also gave a TGI (EKVX NSCLC) greater than 100 µM, a TGI (NCI-H522 lung) greater than 100 µM and a TGI (M14 melanoma) greater than 100 µM. The TGI (RPMI-8226 leukemia) was greater than 100 µM, the TGI (SNB-19 CNS) was greater than 100 µM and the TGI (HCC-2998 colon) was greater than 100 µM. It also gave a TGI (CCRF-CEM leukemia) greater than 100 µM, a TGI (SW-620 colon) greater than 100 µM and a TGI (SK-OV-3 ovarian) greater than 100 µM. It also gave a TGI (HOP-92 NSCLC) greater than 100 µM and a TGI (SK-MEL-5 melanoma) greater than 100 µM.

— PubChem BioAssay (NCI)
